From patent publication US4824829A, “Non-dusting antibiotic, anticoccidial premix compositions and a process for their manufacture” (American Cyanamid Company, priority 1985, dated 1989)

What was measured:
[1] = Segregation study (drug accumulation in medicated poultry feed after two hours on drum roller); format: physicochemical
Experimental: The segregation test is performed in a commercially-blended poultry feed, supplemented with 1000 ppm (0.1%) of drug, using the premix prepared in Example 1 in one blend and pure drug with an equivalent amount of corncob grits in the other as indicated in Table IV below.
These materials are placed into new one-gallon Nalgene dense polyethylene jars and placed on a drum roller for two hours. At the end of the mixing time, the jars are sampled in the horizontal position to remove the material which has accumulated and packed in the neck (#1), then the jars are emptied without shaking or tapping, and a cross-sectional sample taken from the bulk (#2); finally, the empty jar is extracted and assayed for residual drug (#3).

in vivo = conditions: rabbit, topical or ocular
[2] = Relative Dermal Toxicities (LD50 Rabbit Dermal Toxicity); conditions: in vivo, topical or ocular, Female, maduramicin
[3] = emptied jar residue, feed with 1000 ppm drug
[4] = neck of jar, feed with 1000 ppm drug

For `COC1CC(OC2CC(C3OC(C)(O)C(C)CC3C)OC2C2(C)CCC(C3(C)CCC4(CC(O)C(C)C(C(C)C5OC(O)(CC(=O)O)C(C)C(OC)C5OC)O4)O3)O2)OC(C)C1OC` (stereo not drawn) [Pure Drug], the “#2 Bulk sample, Assay” value ([1]; cross-sectional bulk sample, feed with 1000 ppm drug) was 1115 ppm, the “#3 Bottle residue, Assay” value [1, 3] was 2300 ppm and the “#3 Bottle residue, Total Drug” value [1, 3] was 1.85 mg. For the same compound, the “#3 Bottle residue, Weight” value [1, 3] was 0.80 g, the “separation of drug from the feed” value ([1]; mixed dry with feed) was “separates freely from the feed” and the “tendency to accumulate in the spots of least movement” value ([1]; mixed dry with feed, neck of the bottle, vs premix) was “greater tendency to accumulate in the spots of least movement”. The “actual amount of drug segregating, pure drug vs premix (times larger)” value ([1]; neck accumulation, pure drug relative to premix) was “more than seven”, the “#1 Neck accumulation, Assay” value [1, 4] was 1745 ppm and the “#1 Neck accumulation, Total Drug” value [1, 4] was 14.8 mg. For the same compound, the “#1 Neck accumulation, Weight” value [1, 4] was 8.5 g.
`CO[C@@H]1[C@@H](OC)[C@H](C)[C@@](O)(CC(=O)O)O[C@H]1[C@H](C)[C@H]1O[C@@]2(CC[C@@](C)([C@H]3CC[C@@](C)([C@@H]4O[C@@H]([C@H]5O[C@](C)(O)[C@H](C)C[C@@H]5C)C[C@@H]4O[C@@H]4C[C@H](OC)[C@@H](OC)[C@H](C)O4)O3)O2)C[C@H](O)[C@H]1C` [Composition 1, maduramicin] gave an LD50 (in vivo) of 8.9 mg/kg and an LD50 [2] of 3.7 mg/kg.
